These results are taken from ChEMBL document CHEMBL1129879, “Enzymatic synthesis of peptidyl amino alcohols and peptidyl amino aldehydes-serine proteinase inhibitors” (Bioorg Med Chem Lett, 1997).

Where a SMILES comes first, the peptide text is derived from it. The star is where a group is joined. Cbz = O=C(OCc1ccccc1)*

Test [1] can be described thus: The compound was tested for the inhibition of subtilisin 72, activity expressed as Ki. Also noted: species or system Bacillus subtilis.
The nature of test [2]: The compound was tested for the inhibition of subtilisin 72, activity expressed as IC50. On the set-up: species or system Bacillus subtilis.

What is called Ki is a dissociation constant, usually derived from enzyme kinetics or from competition with a known ligand. The low end stands for a stronger hold on the target, the high end for a looser hold on the target. The term IC50 denotes the concentration needed to halve the response being measured. Compound `C[C@H](NC(=O)OCc1ccccc1)C(=O)N[C@@H](C)C(=O)N[C@H](C=O)Cc1ccccc1` (Cbz-Ala-Ala-Phe-aldehyde) gave a Ki in test [1] of 0.18 µM. This compound yielded an IC50 in test [2] of 0.9 µM.
The compound `C[C@H](NC(=O)OCc1ccccc1)C(=O)N[C@@H](C)C(=O)N[C@H](CO)Cc1ccccc1` (HELM PEPTIDE1{[O=C(OCc1ccccc1)[*:2]].A.A.[OC[C@H](Cc1ccccc1)N[*:1]]}$$$$V2.0) yielded a Ki in test [1] of 1000 µM.
